US20250197390A1, “FUSED HETEROCYCLIC COMPOUND, AND PREPARATION METHOD THEREFOR AND MEDICAL USE THEREOF” (Jiangsu Hengrui Pharmaceuticals Co., Ltd., priority 2022, published 2025)

How the values were obtained:
HT29 cells = assay: Inhibition of necroptosis of HT29 cells (CTG method); type: cell-based; conditions: Homo sapiens, HT-29, TZA mixture (TNFα, Z-VAD-FMK, AT-406) 24 h, CellTiter-Glo, read-out: IC50, inhibitory effect on necroptosis of HT29 cells
Description: Test Example 1: Inhibitory Effects of Compounds of the Present Disclosure on Necroptosis of HT29 Cells
The CTG method was used for detecting the inhibitory effects of the compounds of the present disclosure on the necroptosis of HT29 cells. The specific procedures are as follows:
HT29 cells were purchased from American Type Culture Collection (ATCC, HTB-38) and cultured with a McCoy's 5A medium (10% FBS) in a 37° C. incubator with 5% carbon dioxide. The cell culture density was maintained at 2×10^4 to 8×10^4 cells/cm^2, and the cells were passaged 2-3 times a week.
• a. Test compounds were dissolved in DMSO to 2 mM. • b. The compounds were 3-fold diluted from an initial concentration of 2 mM to 10 gradient concentrations. • c. All concentrations of compounds were 100-fold diluted with the culture medium for later use.
• a. The cells were counted, and the cell density was adjusted to 1×10^5 cells/mL with a fresh culture medium. • b. The cells were seeded in a 96-well plate at 80 µL/well and cultured at 37° C. overnight. • c. […] After the culture plate was left to stand at room temperature for 0.5 h, a stable luminescence signal was obtained, and then the plate was read using a microplate reader. • g. The IC50 values of the compounds of the present disclosure were calculated by the Graphpad software.

RIPK1 kinase = RIPK1 kinase (Homo sapiens (Human), UniProt Q13546); assay: RIPK1 kinase inhibition (ADP-Glo method); type: biochemical; conditions: ATP and MBP substrate, 90 min, read-out: IC50, inhibitory activity against RIPK1 kinase
Sequence of RIPK1 kinase (Q13546 1-327): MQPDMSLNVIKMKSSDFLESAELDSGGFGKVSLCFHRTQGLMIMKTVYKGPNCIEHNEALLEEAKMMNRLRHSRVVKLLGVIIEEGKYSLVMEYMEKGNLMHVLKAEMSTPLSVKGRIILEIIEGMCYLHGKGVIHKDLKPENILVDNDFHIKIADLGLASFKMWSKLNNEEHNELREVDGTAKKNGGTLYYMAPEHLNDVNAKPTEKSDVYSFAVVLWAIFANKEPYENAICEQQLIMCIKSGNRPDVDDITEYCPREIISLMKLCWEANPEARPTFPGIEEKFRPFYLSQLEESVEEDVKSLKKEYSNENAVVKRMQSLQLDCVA
Text: Test Example 2: Inhibitory Activities of Compounds of the Present Disclosure Against RIPK1 Kinase (ADP-Glo Method)
The ADP GLO method was used for detecting the inhibitory activities of the compounds of the present disclosure against RIPK1 kinase. The method is specifically as follows:
• 1) RIPK1 kinase reaction system (containing RIPK1 kinase, MBP, 5× reaction buffer, MnCl2 and DTT) (Promega, VA7592) • 2) ADP-Glo kinase detection kit (containing ADP-Glo reagent and kinase detection reagents) (Promega, V9101) • 3) ATP solution (10 mM) (Thermofisher PV3227) • 4) 96-well small-volume white plate (Cisbio, 66PL96100) • 5) PHERA star microplate reader (BMG labtech)
• a. Reaction buffer: a reaction buffer containing DTT at a final concentration of 50 μM and MnCl2 at a final concentration of 4 mM was prepared using 5× reaction buffer; • b. RIPK1 kinase solution: a RIPK1 kinase solution at a final concentration of 10 ng/μL was prepared using the reaction buffer; • c. […]
• a. […] The plate was read using the PHERA star microplate reader, and relative luminescence unit (RLU) values were recorded. • g. Plotting was performed using the Graphpad software, and the IC50 values of the compounds of the present disclosure were calculated.

[1] = Pharmacokinetic evaluation in beagles after intragastric administration; type: in vivo; conditions: both sexes, beagle, dog, plasma, po, 2 mg/kg
Description: Test Example 3: Pharmacokinetic Evaluation of Compound of the Present Disclosure in Dogs
Beagles were used as test animals. Plasma concentrations of the compound of Example 2 at different time points after intragastric administration of Example 2 compound to beagles were determined using an LC/MS/MS method. The pharmacokinetic performance of the compound of the present disclosure was studied in beagles and its pharmacokinetic profile was evaluated.
Eight beagles were provided by Jiangsu Johnbio Biotechnology Co., Ltd., with an equal number of males and females. The production license number was SCXK (Jiangsu) 2018-0005.
A certain amount of the compound of Example 2 was weighed out, and 5% DMSO+30% PG+30% PEG400+35% normal saline were added to prepare a 0.4 mg/mL clear solution.
The compound of Example 2 was administered at a dose of 2 mg/kg with a volume of 5 mL/kg.
The compound of Example 2 was intragastrically administered to the beagles. 0.5 mL of blood samples were collected from the forelimb vein 0 h before administration and 15 min, 30 min, 1.0 h, 2.0 h, 4.0 h, 6.0 h, 8.0 h, 11.0 h, and 24.0 h after administration. The blood samples were placed into EDTA-K2 anticoagulation test tubes and centrifuged at 10,000 rpm for 2 min (4° C.), and plasma was separated within 1 h and stored in a −80° C. refrigerator/dry ice before analysis. Two hours after administration, feeding was resumed.
After the administration of the compound of Example 2, the plasma concentrations of the compound of Example 2 in the beagles were determined: 50 μL of the beagle plasma at each time point after the administration was taken, and 25 μL of internal standard solution ([…] camptothecin) and 450 μL of acetonitrile were added, and the mixture was vortexed and centrifuged at 3700 rpm for 10 min. 0.5 μL of supernatant was collected for LC/MS/MS analysis.

| IC50 (RIPK1 kinase) | Vd/F ([1]; read-out: Apparent volume of distribution Vz/F) | AUC(0-t) ([1]; read-out: Area under curve AUC0-t) | CL/F ([1]; read-out: Clearance rate CL/F) | half-life ([1]; read-out: Half-life T1/2 (converted)) | Cmax ([1]; read-out: Plasma concentration Cmax) | MRT ([1]; read-out: Residence time MRT) | Structure (SMILES) | IC50 (HT29 cells) |
| --- | --- | --- | --- | --- | --- | --- | --- | --- |
| 23 nM | – | – | – | – | – | – | Nc1nc2cc(-c3ccc4c(c3)C(=O)N(Cc3cc(OC(F)(F)F)ccc3F)CCO4)ccn2n1 [Example 1, 7-(2-Amino-[1,2,4]triazolo[1,5-a]pyridin-7-yl)-4-(2-fluoro-5-(trifluoromethoxy)benzyl)-3,4-dihydrobenzo[f][1,4]oxazepin-5(2H)-one] | 13.3 nM |
| 2.7 nM | 0.49 L/kg | 51600 ng·h/mL | 0.48 mL/min/kg | 12.5 h | 2940 ng/mL | 19.4 h | Nc1nc2cc(-c3ccc4c(c3)C(=O)N(Cc3cc(OC(F)(F)F)ccc3F)CCC4)ccn2n1 [Example 2, 8-(2-Amino-[1,2,4]triazolo[1,5-a]pyridin-7-yl)-2-(2-fluoro-5-(trifluoromethoxy)benzyl)-2,3,4,5-tetrahydro-1H-benzo[c]azepin-1-one] | 1.5 nM |
